Drawing on ChEMBL document CHEMBL1144167, “Development and biological evaluation of C(60) fulleropyrrolidine-thalidomide dyad as a new anti-inflammation agent” (2008), this text covers Activity and Flu intensity for 1 compound.

Activity calls are given as the source filed them. No cut-off for these calls is given here.

Assay [1] has as its system RAW264.7. The experiment in a line: Reduction in iNOS expression in LPS-activated mouse RAW264.7 cells at 1 uM pretreated for 3 hrs before LPS challenge assessed after 24 hrs by Western blot. The class given is functional, cell-based.
For assay [2], the system named is RAW264.7. Nature of the assay: Antiinflammatory activity in mouse LPS-activated RAW264.7 cells assessed as mean fluorescent intensity of ROS scavenging activity at 10 uM pretreated for 3 hrs before LPS challenge by FACS. The class given is functional. For orientation: A flow cytometer gives signals particle by particle.
Assay [3] deals with RAW264.7. Nature of the assay: Reduction in pERK1/2 expression in LPS-activated mouse RAW264.7 cells at 10 uM pretreated for 3 hrs before LPS challenge assessed after 24 hrs by Western blot. The class given is functional, cell-based.
In assay [4] the test system is RAW264.7. The experiment in a line: Antiinflammatory activity in mouse RAW264.7 cells assessed as inhibition of LPS-induced nitric oxide production pretreated for 3 hrs before LPS challenge assessed after 24 hrs by griess assay. The class given is functional, cell-based. (Nitrite, measured by Griess reagent, commonly stands in for NO production.)
The subject of assay [5] is RAW264.7. The experiment in a line: Reduction in iNOS expression in LPS-activated mouse RAW264.7 cells at 10 uM pretreated for 3 hrs before LPS challenge assessed after 24 hrs by Western blot. The class given is functional, cell-based. A general note: Immunoblotting shows a protein as a band on a membrane.
Assay [6] concerns RAW264.7. The experiment in a line: Antiinflammatory activity in mouse RAW264.7 cells assessed as inhibition of LPS-induced TNFalpha synthesis at 10 uM pretreated for 3 hrs before LPS challenge assessed after 24 hrs by ELISA relative to control. The class given is functional. More on the design: scale not given: the % may be the effect or the level left.
Assay [7] has as its system RAW264.7. Nature of the assay: Antiinflammatory activity in mouse RAW264.7 cells assessed as inhibition of LPS-induced nitric oxide production at 10 uM pretreated for 3 hrs before LPS challenge assessed after 24 hrs by griess assay relative to control. More on the design: scale not given: the % may be the effect or the level left. The class given is functional.
The subject of assay [8] is RAW264.7. The experiment in a line: Antiinflammatory activity in mouse LPS-activated RAW264.7 cells assessed as ROS scavenging activity at 10 uM pretreated for 3 hrs before LPS challenge measured by decrease in fluorescent intensity by confocal microscopy. The class given is functional, cell-based.

As for `O=C1CCC(N2C(=O)c3ccccc3C2=O)C(=O)N1` (stereo not drawn) [THALIDOMIDE], the result in the assay on RAW264.7 [1], in the assay on RAW264.7 [3], in the assay with RAW264.7 [5] and in the assay on RAW264.7 [8] was Active. Moreover, the Flu intensity in the assay with RAW264.7 [2] was found to be 468.37. Also, the Activity result is “Dose-dependent effect” with RAW264.7 [4], 55.5% in the assay on RAW264.7 [6] and 44.1% in the assay on RAW264.7 [7].
